Measurements: US20260337189A1, “Cryptolepine Salt Derivative, Preparation Method, and Use Thereof” (ZHEJIANG XINNONG CHEMICAL CO., LTD., priority 2023, published 2026)

Key:
[1] = tested on: tobacco Mosaic virus (TMV); experiment: Living passivation activity test against tobacco Mosaic virus (TMV); format: in vivo; conditions: 500 mg/L, tobacco Xanthi nc, sample mixed with virus juice 30 min, virus 20 μg/mL, 3 days; for inhibition at 500 µg/mL: Tobacco mosaic virus, read-out: Relative inhibition rate, living passivation activity test
Protocol: (§1) Determination of anti-tobacco Mosaic virus (TMV) activity by the following procedure:
(§2) After weighing, cryptolepine salt derivative, ningnanmycin and the original drug of ribavirin were dissolved in DMF to obtain 1×10^5 μg/mL mother solution, and then diluted to the required concentration with 1%. Tween 80 aqueous solution.
(§3) Select the 3-5 leaf stage of tobacco Xanthi nc with uniform growth, mix the test sample agent with the same volume of virus juice to passivate for 30 min, friction inoculation, virus concentration 20 μg/mL, the leaf was washed with running water after inoculation, repeat 3 times, set 1%. Tween 80 aqueous solution as control. 3 days later, the number of disease spots was calculated.
(§4) Relative inhibition rate (%)=[(number of dead spots of control group-number of dead spots of test sample group)/number of dead spots of control group]×100%.
(§5) Anti-tobacco Mosaic virus passivation activity test of all compounds was at a treatment dose of 500 μg/mL. The positive control was the commercial anti-plant virus agent viriazole.

rice sheath blight = experiment: Test of resistance to rice sheath blight (bactericidal activity test); format: in vivo; conditions: for Resistance to rice sheath blight: 400 mg/L, rice seedlings, sprayed 24 h before inoculation, 6 days after inoculation, visual inspection; for bactericidal activity against rice sheath blight: live pot test, Table 5, 400 mg/L
Protocol: Bactericidal activity test, the determination procedure is as follows:
Test of resistance to rice sheath blight: Select uniformly growing rice seedlings and spray them on the leaves at the set concentration, set a water spraying group as blank control, every treatment was repeated twice. After 24 h, the rice seedlings were inoculated with rice sheath blight strains and placed at room temperature (25±4° C.) for normal management after inoculation. The prevention and control effect was investigated by visual inspection 6 days after inoculation.

[2] = tested on: tobacco Mosaic virus (TMV); experiment: Live protection function against tobacco Mosaic virus (TMV); format: in vivo; conditions: for Relative inhibition rate, live protection function: 500 mg/L, tobacco Xanthi nc, sprayed 24 h before inoculation, virus 10 μg/mL, 3 days; for inhibition at 500 µg/mL: Tobacco mosaic virus, read-out: Relative inhibition rate, live protection function
Protocol: as §1, §2
(§6) Select the 3-5 leaf stage of tobacco Xanthi nc with uniform growth, spray the whole plant, repeat each treatment 3 times, and set 1%. Tween80 aqueous solution as control. 24 h later, the leaf surface was coated with emery (500 mesh), the disease venom was dipped with a brush, and the whole leaf surface was gently rubbed twice along the direction of the branch pulse by using the brush, the leaf was supported by palm of hand, the virus concentration was 10 μg/mL, and the leaf was washed by water after inoculation. After 3 days, the number of disease spots was recorded and the prevention and control effect was calculated.
as §4

[3] = tested on: tobacco Mosaic virus (TMV); experiment: Live treatment effect against tobacco Mosaic virus (TMV); format: in vivo; conditions: 500 mg/L, tobacco Xanthi nc, sprayed after inoculation, virus 10 μg/mL, 3 days; for inhibition at 500 µg/mL: Tobacco mosaic virus, 72 h, read-out: Relative inhibition rate, live treatment effect
Protocol: as §1, §2
(§7) Select the 3-5 leaf stage of tobacco Xanthi nc with uniform growth, use a brush to vaccinate the virus in the whole leaf, the virus concentration is 10 μg/mL, and the leaf was washed with running water after inoculation. After the leaves were dried, the whole plant was sprayed with test sample, repeated 3 times every treatment, and 1%. Tween 80 aqueous solution was set as control. After 3 days, the number of disease spots was recorded and the prevention and control effect was calculated.
as §4

[4] = tested on: tobacco Mosaic virus (TMV); experiment: Anti-tobacco Mosaic virus (TMV) activity, overall comparison of Test Example 1; format: in vivo; conditions: 500 μg/mL; Table 4
Protocol: as §1, §2, §6, §7, §3, §4, §5

Plasmodium falciparum = conditions: cited from earlier work

| SMILES | Resistance to rice sheath blight (rice sheath blight) | TMV activity compared with ribavirin [4] | further results |
| --- | --- | --- | --- |
| Cc1ccc(S(=O)(=O)n2c3ccc(F)cc3c3c2cc2ccccc2[n+]3C)cc1 [Example 4] | 60 ± 0% | – | Relative inhibition rate, living passivation activity test [1]: 14.1 ± 1.3%; bactericidal activity against rice sheath blight (rice sheath blight): more than 50%; Relative inhibition rate, live protection function [2]: 21.6 ± 3.4%; Relative inhibition rate, live treatment effect [3]: 18.6 ± 1.2% |
| Cc1ccc(S(=O)(=O)n2c3ccc(Cl)cc3c3c2cc2ccccc2[n+]3C)cc1.[Cl-] [Example 5] | 55 ± 5% | better TMV activity than the ribavirin | bactericidal activity against rice sheath blight (rice sheath blight): more than 50%; anti-TMV activity compared with commercial Ningnanmycin [4]: comparable to that of commercial Ningnanmycin |
| Cc1ccc(S(=O)(=O)n2c3ccc(Br)cc3c3c2cc2ccccc2[n+]3C)cc1.[Cl-] [Example 6] | 40 ± 0% | better TMV activity than the ribavirin | anti-TMV activity compared with commercial Ningnanmycin [4]: comparable to that of commercial Ningnanmycin |
| Cc1ccc(S(=O)(=O)n2c3ccc(I)cc3c3c2cc2ccccc2[n+]3C)cc1.[Cl-] [Example 7] | 40 ± 0% | better TMV activity than the ribavirin | inhibition at 500 µg/mL [1]: 47.7 ± 3.1%; inhibition at 500 µg/mL [2]: 44.5 ± 0.4%; inhibition at 500 µg/mL [3]: 43 ± 3.5% |
| Cc1ccc(S(=O)(=O)n2c3ccccc3c3c2cc2cc(Br)ccc2[n+]3C)cc1.[Cl-] [Example 13] | 35 ± 5% | better TMV activity than the ribavirin | anti-TMV activity compared with commercial Ningnanmycin [4]: comparable to that of commercial Ningnanmycin |
| Cc1ccc(S(=O)(=O)n2c3ccccc3c3c2cc2ccccc2[n+]3CC2CC2)cc1 [Example 18] | 45 ± 5% | better TMV activity than the ribavirin | bactericidal activity against rice sheath blight (rice sheath blight): more than 50% |
| Cc1ccc(S(=O)(=O)n2c3ccccc3c3c2cc2ccccc2[n+]3CC2CCCCC2)cc1 [Example 19] | 20 ± 0% | better TMV activity than the ribavirin | – |
| Cc1ccc(S(=O)(=O)n2c3ccccc3c3c2cc2ccccc2[n+]3CC(C)(C)C)cc1 [Example 20] | 55 ± 5% | better TMV activity than the ribavirin | bactericidal activity against rice sheath blight (rice sheath blight): more than 50%; anti-TMV activity compared with commercial Ningnanmycin [4]: comparable to that of commercial Ningnanmycin |
| Cc1ccc(S(=O)(=O)n2c3ccccc3c3c2cc2ccccc2[n+]3Cc2ccccc2)cc1 [Example 21] | 40 ± 0% | better TMV activity than the ribavirin | – |
| CCCCCNc1c2ccccc2[n+](C)c2c1[nH]c1ccccc12 [Example 24] | 30 ± 0% | – | inhibition at 500 µg/mL [1]: 35.2 ± 1%; inhibition at 500 µg/mL [2]: 36.9 ± 3.7%; inhibition at 500 µg/mL [3]: 30.3 ± 0.8% |
| CCCCCCCCCCCCNc1c2ccccc2[n+](C)c2c1[nH]c1ccccc12 [Example 25] | 20 ± 0% | – | inhibition at 500 µg/mL [1]: 35.1 ± 0.1%; inhibition at 500 µg/mL [2]: 27.3 ± 3%; inhibition at 500 µg/mL [3]: 22.1 ± 1.1% |
| CC(C)CCNc1c2ccccc2[n+](C)c2c1[nH]c1ccccc12 [Example 26] | 35 ± 5% | better TMV activity than the ribavirin | – |
| CCCCC(CC)CNc1c2ccccc2[n+](C)c2c1[nH]c1ccccc12 (centres unmarked) [Example 27] | 30 ± 0% | better TMV activity than the ribavirin | anti-TMV activity compared with commercial Ningnanmycin [4]: comparable to that of commercial Ningnanmycin |
| C[n+]1c2ccccc2c(NC2CCCC2)c2[nH]c3ccccc3c21 [Example 29] | 30 ± 0% | – | Relative inhibition rate, living passivation activity test [1]: 30.5 ± 0.9%; Relative inhibition rate, live protection function [2]: 38.6 ± 4.6%; Relative inhibition rate, live treatment effect [3]: 36.5 ± 2.3% |
| C[n+]1c2ccccc2c(NCCCN)c2[nH]c3ccccc3c21.[I-] [Example 33] | 40 ± 0% | better TMV activity than the ribavirin | inhibition at 500 µg/mL [1]: 49.8 ± 3.1%; inhibition at 500 µg/mL [2]: 57.9 ± 4.6%; inhibition at 500 µg/mL [3]: 51.7 ± 3.6%; anti-TMV activity compared with commercial Ningnanmycin [4]: comparable to that of commercial Ningnanmycin |
| C[n+]1c2ccccc2c(NCCCCN)c2[nH]c3ccccc3c21.[I-] [Example 34] | 20 ± 0% | better TMV activity than the ribavirin | anti-TMV activity compared with commercial Ningnanmycin [4]: comparable to that of commercial Ningnanmycin |
| CC(N)CNc1c2ccccc2[n+](C)c2c1[nH]c1ccccc12.[I-] (centres unmarked) [Example 35] | 25 ± 5% | better TMV activity than the ribavirin | – |
| C[n+]1c2ccccc2c(NC2CCNC2)c2[nH]c3ccccc3c21.[I-] (centres unmarked) [Example 40] | 20 ± 0% | better TMV activity than the ribavirin | – |
| C[n+]1c2ccccc2c(NC2CCNCC2)c2[nH]c3ccccc3c21.[I-] [Example 41] | 40 ± 0% | better TMV activity than the ribavirin | – |
| C[n+]1c2ccccc2c(NCC2CCNCC2)c2[nH]c3ccccc3c21.[I-] [Example 42] | 25 ± 5% | – | inhibition at 500 µg/mL [1]: 25.1 ± 0.2%; inhibition at 500 µg/mL [2]: 28.1 ± 3%; inhibition at 500 µg/mL [3]: 30.2 ± 2.1% |
| CN1CCCC(CNc2c3ccccc3[n+](C)c3c2[nH]c2ccccc23)C1 (centres unmarked) [Example 46] | 30 ± 0% | better TMV activity than the ribavirin | – |
| C[n+]1c2ccccc2c(NCCCN2CCCCC2)c2[nH]c3ccccc3c21 [Example 47] | 45 ± 5% | – | Relative inhibition rate, living passivation activity test [1]: 35.7 ± 0.3%; bactericidal activity against rice sheath blight (rice sheath blight): more than 50%; Relative inhibition rate, live protection function [2]: 36.4 ± 2.8%; Relative inhibition rate, live treatment effect [3]: 33.3 ± 2.0% |
| C[n+]1c2ccccc2c(N2CCN(CCN)CC2)c2[nH]c3ccc(Cl)cc3c21.[I-] [Reference Example 2, 11-(4′-(2-aminoethyl)-piperazinyl) substituted cryptolepine iodide salt, reference compound] | 0% | – | – |
| Cc1nc(C(F)(F)F)c(C(=O)Nc2c(Br)cc(OC(F)(F)F)cc2Br)s1 [Thifluzamide, thifluzamide, reference compound] | 100% | – | – |
| Cn1c2c3ccccc3nc-2cc2ccccc21 [cryptolepine] | – | – | activity against Plasmodium falciparum compared with Chloroquine (Plasmodium falciparum): comparable activity against Plasmodium falciparum to Chloroquine |
